Experiment [1] in a line: Ferric-reducing antioxidant power assay (FRAP). Particulars: absorbance at 593 nm after 5 min. As to the method: The FRAP test was performed as described previously. A standard curve of the antioxidant Trolox was plotted, then the measurement was performed with 290 µL of extract and its absorbance was measured at 593 nm after 5 min. The results were expressed in mg of Trolox equivalent per g of dry lichen. The experiments were performed in triplicate and the values are expressed as the mean ± SD.

The nature of experiment [2]: Oxygen radical absorbance capacity (ORAC) assay. On the procedure: The ORAC assay was performed as previously described. Quantification was performed using a standard curve of the antioxidant Trolox, then the measurement was performed using a solution of the Trolox, blank, and 40 µL of extract in different wells of the microplate reader. The results were obtained by constructing the equations (Trolox/samples vs. fluorescence decay curves) and expressed in μmol Trolox equivalents per grams of dry lichen. The tests were performed in triplicate and the results are reported as the mean ± SD.

Experiment [3] in a line: DPPH scavenging activity. Particulars: bleaching of DPPH at 515 nm after 30 min. On the procedure: The potential bleaching of the radical DPPH, using a Synergy HTX microplate reader, was determined by mixing 50 µL of extract or standard with 150 µL of DPPH solution; the determinations were made in triplicate by monitoring the bleaching of DPPH at 515 nm after 30 min of reaction. The results are expressed as IC50 in µg of standard or extract per mL. The data are reported as the mean ± SD.

In experiment [4] the target is T1, acetylcholinesterase (AChE, EC 3.1.1.7) (Homo sapiens, UniProt P22303).
T1 construct: purchased Sigma (St. Louis, MO, USA)
T1 sequence (P22303 32-614, species assumed): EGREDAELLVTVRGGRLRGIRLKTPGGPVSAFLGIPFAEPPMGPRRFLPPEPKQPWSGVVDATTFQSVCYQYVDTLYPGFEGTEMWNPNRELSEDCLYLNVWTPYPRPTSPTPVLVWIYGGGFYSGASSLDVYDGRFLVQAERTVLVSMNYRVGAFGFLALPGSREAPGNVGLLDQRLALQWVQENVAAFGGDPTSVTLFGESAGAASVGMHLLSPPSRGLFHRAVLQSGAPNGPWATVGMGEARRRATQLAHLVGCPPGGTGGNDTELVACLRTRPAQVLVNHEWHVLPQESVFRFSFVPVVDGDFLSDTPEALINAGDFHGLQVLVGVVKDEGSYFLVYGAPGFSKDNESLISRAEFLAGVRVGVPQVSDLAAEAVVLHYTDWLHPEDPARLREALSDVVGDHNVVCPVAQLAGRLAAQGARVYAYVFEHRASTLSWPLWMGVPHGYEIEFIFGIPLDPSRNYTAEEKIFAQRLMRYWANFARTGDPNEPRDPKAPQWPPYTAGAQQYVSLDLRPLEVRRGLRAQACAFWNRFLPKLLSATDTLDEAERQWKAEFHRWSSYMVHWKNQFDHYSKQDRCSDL
Briefly: biochemical. Particulars: 37 °C. As to the method:
(§1) Inhibition of AChE activity was determined according to the Ellman method, as previously reported. The samples (2 mg/mL) were prepared by mixing tris-HCl buffer (50 mM, pH 8.0), enzyme solution (AChE or BChE), and 5-dithio-bis (2-nitrobenzoic acid) (DTNB) at pH 8.0. The reaction was started by adding acetyl-thiocholine iodide (ATCI) or butyryl-thiocholine chloride (BTCl). The absorbance of the extract was measured at 405 nm for 30 min at 37 °C. Three experiments were performed in triplicate in each test and the values are reported as the mean ± SD. The results were expressed as IC50 (µg/mL, the final concentration of the plate ranged from 0.05 to 25 μg/mL).

Experiment [5] has as its target T2, butyrylcholinesterase (BChE, EC 3.1.1.8) (Homo sapiens, UniProt P06276).
T2 construct: purchased Sigma (St. Louis, MO, USA)
Briefly: biochemical. As to the method: as §1

Experiment [6] has as its system AChE. Particulars: cited from earlier work.
For experiment [7], the system named is BChE. Particulars: cited from earlier work.
The subject of experiment [8] is tyrosinase. Particulars: cited from earlier work.
Setting [9] is: Ellman method, read-out: AChE IC50 (converted).
Where [10] appears, read: Ellman method, 37 °C, read-out: BChE IC50 (converted).

Molecules are shown by their SMILES. Read-outs that look alike come from different tables or passages of the source. Marks after values point to notes of the source that are not given here.

T2 sequence (P06276 29-602): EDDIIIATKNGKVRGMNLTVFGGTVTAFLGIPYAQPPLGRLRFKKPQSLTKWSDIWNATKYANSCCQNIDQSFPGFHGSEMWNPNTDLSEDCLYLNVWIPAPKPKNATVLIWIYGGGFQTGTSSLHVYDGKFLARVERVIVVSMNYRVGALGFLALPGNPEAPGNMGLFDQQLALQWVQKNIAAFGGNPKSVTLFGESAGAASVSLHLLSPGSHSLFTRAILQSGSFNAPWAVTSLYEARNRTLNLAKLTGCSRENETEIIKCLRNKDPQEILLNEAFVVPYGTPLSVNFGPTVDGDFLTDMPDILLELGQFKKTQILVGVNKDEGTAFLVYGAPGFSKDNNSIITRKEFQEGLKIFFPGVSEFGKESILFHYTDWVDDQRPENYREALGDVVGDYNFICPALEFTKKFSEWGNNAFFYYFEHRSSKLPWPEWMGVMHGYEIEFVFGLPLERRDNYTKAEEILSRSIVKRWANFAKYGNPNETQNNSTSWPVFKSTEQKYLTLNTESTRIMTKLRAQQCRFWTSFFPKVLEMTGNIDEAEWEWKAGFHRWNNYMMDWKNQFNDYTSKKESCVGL

For `CC(=O)c1c(O)c(C)c(O)c2c1OC1=CC(=O)C(C(C)=O)C(=O)C12C` (stereo not drawn) [Usnic acid], the FRAP in experiment [1] worked out at 22.4 ± 0.00 μmol Trolox/g lichen. For the same compound, the ORAC in experiment [2] is 122.73 ± 1.0 μmol Trolox/g lichen. In experiment [3], the “DPPH antiradical activity (IC50)” value turned out to be 55.25 ± 0.04 µg/mL. Besides, the IC50 in experiment [4] (AChE IC50, Ellman method) was 6.42 µM; in experiment [5] it was 12.7 µM; in experiment [6] (reported previously), 0.00127 µM; in experiment [7] (reported previously), 0.0034 µM.

`O=C(O)c1cc(O)c(O)c(O)c1` [Gallic acid, reference compound]: in experiment [1], the FRAP is given as 45.5 ± 0.00 μmol Trolox/g lichen. For the same compound, the “DPPH antiradical activity (IC50)” value in experiment [3] is 2.24 ± 0.04 µg/mL.

Regarding `Cc1cc(OC(=O)c2c(C)cc(O)cc2O)cc(O)c1C(=O)O` [lecanoric acid], the “inhibition of tyrosinase activity” value in experiment [8] is listed as 82.69%.

As to `C[C@@H]1O[C@@H](O[C@@H]2C(=O)c3c(O)cc(O)cc3O[C@@H]2c2ccc(O)c(O)c2)[C@H](O)[C@H](O)[C@H]1O` [isoastilbin], in experiment [6] (at 2.2 µM), the AChE inhibition is 51.70%. Further, in experiment [7] (at 2.2 µM), the BChE inhibition is 50.10%.

For `Cc1cc(O)c(C=O)c2c1C(=O)Oc1c(COC(=O)/C=C/C(=O)O)c(O)c(C(=O)O)c(C)c1O2` [fumarprotocetraric acid], in experiment [8] (at 0.6 mM), the “inhibition of tyrosinase activity” value is listed as 39.8%.

`Cc1cc(O)c(C=O)c(O)c1C(=O)OCc1cc(O)c(C=O)c(O)c1C(=O)O` [Barbatolic acid, barbatolic acid]: the FRAP in experiment [1] is 28.10 ± 0.0 ^a μmol Trolox/g lichen. Also, the ORAC in experiment [2] is on record as 101.11 ± 0.71 μmol Trolox/g lichen. For the same compound, in experiment [3], the “DPPH antiradical activity (IC50)” value was found to be 62.55 ± 0.01 µg/mL. In addition, the IC50 in experiment [4] (setting [9]) was 44.6 µM; in experiment [5] (setting [10]), 61.4 µM.

With `CC(=O)C1=C(O)C=C2Oc3c(C(C)=O)c(O)c(C)c(O)c3[C@@]2(C)C1=O` [(+) usnic acid], the tyrosinase inhibition in experiment [8] (at the dose of 250 μg/mL) was 9.1%.

Take `Cc1cc(O)cc(O)c1C(=O)O` [orsellinic acid, 2,4-dihydroxy-6-methylbenzoic acid]: the “inhibition of tyrosinase activity” value in experiment [8] was 63.35%.

In the case of `Cc1c(O)cc2c(c1O)C(=O)OC2` [5,7-dihydroxy-6-methylphthalide], in experiment [1], the FRAP is reported as 36.91 ± 0.0 μmol Trolox/g lichen. In experiment [2], this compound gave an ORAC of 373.65 ± 1.05 μmol Trolox/g lichen. In experiment [3], the “DPPH antiradical activity (IC50)” value was determined as 12.52 ± 0.02 µg/mL. For the same compound, the IC50 in experiment [4] (setting [9]) is 70.5 µM; in experiment [5] (setting [10]), 108 µM.

With `Cc1cc(O)c(C=O)c(O)c1` [Atranol, atranol], in experiment [1], the FRAP is 29.32 ± 0.0 ^a μmol Trolox/g lichen. In experiment [2], this compound returned an ORAC of 176.28 ± 0.84 μmol Trolox/g lichen. Also, the “DPPH antiradical activity (IC50)” value in experiment [3] is 21.04 ± 0.02 µg/mL. For the same compound, the IC50 in experiment [4] (setting [9]) was 189 µM; in experiment [5] (setting [10]), 239 µM.

The values above are taken from paper PMC9227586, “UHPLC-MS Metabolomic Fingerprinting, Antioxidant, and Enzyme Inhibition Activities of Himantormia lugubris from Antarctica” (Metabolites, 2022).
